The target in one test is T1, TGF-β2-α2M* complex (Homo sapiens, UniProt P01023).
T1 construct: was purified from pooled citrate-treate human plasma; from tissue; host or cells: pooled citrate-treated human plasma
T1 sequence (P01023 24-1474): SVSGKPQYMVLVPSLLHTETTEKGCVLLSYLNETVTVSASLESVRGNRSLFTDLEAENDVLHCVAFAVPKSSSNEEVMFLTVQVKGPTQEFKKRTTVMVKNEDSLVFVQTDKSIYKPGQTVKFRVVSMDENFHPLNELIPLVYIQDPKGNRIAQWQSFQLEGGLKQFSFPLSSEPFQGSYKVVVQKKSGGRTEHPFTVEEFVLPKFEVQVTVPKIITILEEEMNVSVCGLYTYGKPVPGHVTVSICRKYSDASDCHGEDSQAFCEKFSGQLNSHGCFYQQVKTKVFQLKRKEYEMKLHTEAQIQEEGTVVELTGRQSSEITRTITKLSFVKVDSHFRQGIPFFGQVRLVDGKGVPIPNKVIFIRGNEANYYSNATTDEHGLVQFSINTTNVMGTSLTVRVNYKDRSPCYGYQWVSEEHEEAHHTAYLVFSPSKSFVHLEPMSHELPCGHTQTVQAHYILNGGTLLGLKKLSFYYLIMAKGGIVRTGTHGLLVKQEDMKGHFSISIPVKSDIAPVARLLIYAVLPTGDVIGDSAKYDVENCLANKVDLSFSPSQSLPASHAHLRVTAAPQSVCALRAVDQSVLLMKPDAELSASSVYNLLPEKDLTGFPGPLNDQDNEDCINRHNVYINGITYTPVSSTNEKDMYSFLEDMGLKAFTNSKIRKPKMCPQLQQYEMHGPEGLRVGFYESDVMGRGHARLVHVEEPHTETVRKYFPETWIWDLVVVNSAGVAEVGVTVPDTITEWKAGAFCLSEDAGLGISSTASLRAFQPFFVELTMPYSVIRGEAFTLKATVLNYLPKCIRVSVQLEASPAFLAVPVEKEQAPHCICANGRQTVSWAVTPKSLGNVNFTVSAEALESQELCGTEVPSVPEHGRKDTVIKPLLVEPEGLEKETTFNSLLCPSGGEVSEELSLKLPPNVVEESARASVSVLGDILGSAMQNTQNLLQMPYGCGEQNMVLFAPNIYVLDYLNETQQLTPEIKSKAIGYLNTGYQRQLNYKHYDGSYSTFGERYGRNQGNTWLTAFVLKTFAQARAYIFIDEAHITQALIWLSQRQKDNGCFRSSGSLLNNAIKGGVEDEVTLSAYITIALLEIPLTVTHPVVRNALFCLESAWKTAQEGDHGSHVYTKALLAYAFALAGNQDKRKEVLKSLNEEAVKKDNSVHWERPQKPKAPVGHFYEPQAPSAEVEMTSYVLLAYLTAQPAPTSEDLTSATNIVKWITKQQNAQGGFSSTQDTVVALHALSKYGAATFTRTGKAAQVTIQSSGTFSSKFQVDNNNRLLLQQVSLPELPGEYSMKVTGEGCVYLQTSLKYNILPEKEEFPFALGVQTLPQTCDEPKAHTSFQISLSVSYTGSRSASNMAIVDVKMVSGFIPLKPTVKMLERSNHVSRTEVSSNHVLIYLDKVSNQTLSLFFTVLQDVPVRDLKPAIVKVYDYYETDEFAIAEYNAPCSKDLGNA
Nature of the test: Inhibition of 125I-TGF-β2 and α2M* complex formation (5% non-denaturing PAGE). The test is classed as binding. Particulars: 50% inhibition; read-out: concentration that inhibited 50% of the complex formation of α2M* and 125I-TGF-β2. The method, then: (§1) TGF- ? isoforms bind to α2M* with different affinities: TGF ? β2>TGF ? β1 ( active sites of TGF ? β1 and TGF- ? 2 responsible for high-affinity binding to ? 2M* are disti from the low-affinity ? 2M* binding site in TGF- ? 3 (19). To determine if fatty acids differentially affect the binding of TGF- ? isoforms to ? 2M*, the effects of various concentrations of arachidonic acid and myristic acid on complex formation of ^125I-labeled TGF ? β isoforms and ? 2M were determined*. […] It inhibited 30% of the complex form . α2M* and TGF ? β2 and TGF ? β3 at 100 and >250 μM, respectively. Arachidon polyunsaturated fatty acid, was a stronger inhibitor of complex formation of ? 2M* and TGF-.β2/TGF ? β3. It inhibited 50% of the complex formation of ? 2M* and ^125I-TGF- ? 2 at 50 μM (FIG. 3A). The observation that myristic acid and arachidonic acid inhibited complex formation of ^125I-TGF- ? […] 2M* complexes in the reaction mixtures were then analyzed by 7.5% SDS-PAGE and autoradiography.
(§2) Complex formation of ^125I-TGF-β and ? […] After 30 min at room temperature, the complex formation of ^125I-TGF- ? and. α2M* was determined by 5% non-denaturing polyacrylamide gel electrophoresis (PAGE) or by 7.5% SDS-PAGE following cross-linking by 0.6 mM DSS. After electrophoresis, the gel was stained with Coomassie blue and analyzed by autoradiography. […] 2M* was quantified using a PhosphoImager (Fuji).

Test [1] deals with T2, 125I-TGF-β isoform-α2M* complexes (Homo sapiens, UniProt P01023).
T2 construct: was purified from pooled citrate-treate human plasma; from tissue; host or cells: pooled citrate-treated human plasma
T2 sequence (P01023 24-1474): T1 sequence (P01023 24-1474)
In words: Complex formation of 125I-TGF-β isoforms and α2M* by DSS cross-linking and 7.5% SDS-PAGE. Particulars: DSS cross-linking, effective concentrations comparable to non-denaturing PAGE. In kind it is binding. The method, then: as §1, §2

As to `CCCCC/C=C\C/C=C\C/C=C\C/C=C\CCCC(=O)O` [arachidonic acid], at TGF-β2-α2M* complex, the IC50 amounted to 50 µM. Moreover, the “blocking of cross-linked 125I-TGF-β isoform-α2M* complex formation” value in test [1] was “blocked complex formation”.

Values taken from US20040229791A1, “Compositions and methods of modulating TGF-beta activity by fatty acids” (priority 2002, published 2004).
